In patent publication US9604933B2, “Pyrazolochalcones as potential anticancer agents” (COUNCIL OF SCIENTIFIC AND INDUSTRIAL RESEARCH, priority 2013, dated 2017):

Assays:
[1] = system: COLO-205; experiment: NCI SRB cytotoxicity, colon COLO-205; assay type: cell-based; settings: Homo sapiens, 48 h exposure
Method: (§1) The pyrazolochalcones (7e, 8e, 10e, 11e, 12e, 13e and 8f) have been tested against fifty nine human tumor cell lines derived from nine cancer types (leukemia, non-small cell lung cancer, colon cancer, CNS cancer, melanoma, ovarian cancer, renal cancer, prostate cancer and breast cancer) as per the NCI protocol. For each compound, dose response curves for individual cell lines have been measured at a minimum of five concentrations at 10 fold dilutions. A protocol of 48 h continuous drug exposure has been used, and a sulforhodamine B (SRB) protein assay has been used to estimate cell viability or growth. The concentration for 50% cell growth inhibition (GI50), 50% cell death (LC50, 50% growth) and total cell growth inhibition (TGI, 0% growth) values were tabulated (Table-1). DMSO was used as control to calculate the values of GI50, LC50 and TGI. The compounds 7e, 8e, 10e, 11e, 12e, 13e and 8f has been evaluated for their in vitro cytotoxicity in […] cell lines from nine human cancer types of leukemia (K-562, SR), non-small cell lung (Hop-62, NCI-H226, NCI-H522), colon (HCT-116, HCT-15, HCC-2998), CNS (SF-539), melanoma (SK-MEL-5, UACC-62, M14), ovarian (IGROV1), renal (A498), prostate (PC3) and breast (BT-549, MDA-MB-435, HS578T) origin. The results are expressed as percent of cell growth determined relative to that of untreated control cells (Table 2).

[2] = system: UACC-257; experiment: NCI SRB cytotoxicity, melanoma UACC-257; assay type: cell-based; settings: Homo sapiens, 48 h exposure
Method: as §1

[3] = system: HS 578T; experiment: NCI SRB cytotoxicity, breast HS 578T; assay type: cell-based; settings: Homo sapiens, 48 h exposure
Method: as §1

[4] = system: SN12C; experiment: NCI SRB cytotoxicity, renal SN12C; assay type: cell-based; settings: Homo sapiens, 48 h exposure
Method: as §1

[5] = system: CCRF-CEM; experiment: NCI SRB cytotoxicity, leukemia CCRF-CEM; assay type: cell-based; settings: Homo sapiens, 48 h exposure
Method: as §1

[6] = system: PC-3; experiment: NCI SRB cytotoxicity, prostate PC-3; assay type: cell-based; settings: Homo sapiens, 48 h exposure
Method: as §1

[7] = system: CAKI-1; experiment: NCI SRB cytotoxicity, renal CAKI-1; assay type: cell-based; settings: Homo sapiens, 48 h exposure
Method: as §1

[8] = system: SNB-19; experiment: NCI SRB cytotoxicity, CNS SNB-19; assay type: cell-based; settings: Homo sapiens, 48 h exposure
Method: as §1

[9] = system: SF-268; experiment: NCI SRB cytotoxicity, CNS SF-268; assay type: cell-based; settings: Homo sapiens, 48 h exposure
Method: as §1

[10] = system: NCI-H522; experiment: NCI SRB cytotoxicity, non-small cell lung NCI-H522; assay type: cell-based; settings: Homo sapiens, 48 h exposure
Method: as §1

[11] = system: HCC-2998; experiment: NCI SRB cytotoxicity, colon HCC-2998; assay type: cell-based; settings: Homo sapiens, 48 h exposure
Method: as §1

[12] = system: M14; experiment: NCI SRB cytotoxicity, melanoma M14; assay type: cell-based; settings: Homo sapiens, 48 h exposure
Method: as §1

[13] = system: NCI-H460; experiment: NCI SRB cytotoxicity, non-small cell lung NCI-H460; assay type: cell-based; settings: Homo sapiens, 48 h exposure
Method: as §1

[14] = system: LOX IMVI; experiment: NCI SRB cytotoxicity, melanoma LOX IMVI; assay type: cell-based; settings: Homo sapiens, 48 h exposure
Method: as §1

[15] = system: K-562; experiment: NCI SRB cytotoxicity, leukemia K-562; assay type: cell-based; settings: Homo sapiens, K562, 48 h exposure
Method: as §1

[16] = system: HCT-116; experiment: NCI SRB cytotoxicity, colon HCT-116; assay type: cell-based; settings: Homo sapiens, 48 h exposure
Method: as §1

[17] = system: Melanoma; experiment: NCI SRB cytotoxicity, melanoma panel average; assay type: cell-based, human; settings: average of cell lines; for GI50 / LC50: Homo sapiens; for GI50: read-out: Log10 GI50 (concentration in mol/L causing 50% growth inhibition) (converted); for LC50: read-out: Log10 LC50 (concentration in mol/L causing 50% cell death) (converted)
Method: as §1
(§2) Each cancer type represents the average of six to eight different cancer cell lines.

[18] = system: HT29; experiment: NCI SRB cytotoxicity, colon HT29; assay type: cell-based; settings: Homo sapiens, HT-29, 48 h exposure
Method: as §1

[19] = system: MALME-3M; experiment: NCI SRB cytotoxicity, melanoma MALME-3M; assay type: cell-based; settings: Homo sapiens, 48 h exposure
Method: as §1

[20] = system: Non-small cell lung; experiment: NCI SRB cytotoxicity, non-small cell lung panel average; assay type: cell-based, human; settings: average of cell lines; for GI50 / LC50: Homo sapiens; for GI50: read-out: Log10 GI50 (concentration in mol/L causing 50% growth inhibition) (converted); for LC50: read-out: Log10 LC50 (concentration in mol/L causing 50% cell death) (converted)
Method: as §1, §2

[21] = system: SR; experiment: NCI SRB cytotoxicity, leukemia SR; assay type: cell-based; settings: Homo sapiens, 48 h exposure
Method: as §1

[22] = system: OVCAR-3; experiment: NCI SRB cytotoxicity, ovarian OVCAR-3; assay type: cell-based; settings: Homo sapiens, 48 h exposure
Method: as §1

[23] = system: OVCAR-8; experiment: NCI SRB cytotoxicity, ovarian OVCAR-8; assay type: cell-based; settings: Homo sapiens, 48 h exposure
Method: as §1

[24] = system: SK-MEL-2; experiment: NCI SRB cytotoxicity, melanoma SK-MEL-2; assay type: cell-based; settings: Homo sapiens, 48 h exposure
Method: as §1

[25] = system: OVCAR-4; experiment: NCI SRB cytotoxicity, ovarian OVCAR-4; assay type: cell-based; settings: Homo sapiens, 48 h exposure
Method: as §1

[26] = system: MDA-MB-435; experiment: NCI SRB cytotoxicity, melanoma MDA-MB-435; assay type: cell-based; settings: Homo sapiens, Melanoma panel MDA-MB-435, 48 h exposure
Method: as §1

[27] = system: SK-MEL-28; experiment: NCI SRB cytotoxicity, melanoma SK-MEL-28; assay type: cell-based; settings: Homo sapiens, 48 h exposure
Method: as §1

[28] = system: SK-OV-3; experiment: NCI SRB cytotoxicity, ovarian SK-OV-3; assay type: cell-based; settings: Homo sapiens, 48 h exposure
Method: as §1

[29] = system: SF-539; experiment: NCI SRB cytotoxicity, CNS SF-539; assay type: cell-based; settings: Homo sapiens, 48 h exposure
Method: as §1

[30] = system: DU-145; experiment: NCI SRB cytotoxicity, prostate DU-145; assay type: cell-based; settings: Homo sapiens, 48 h exposure
Method: as §1

[31] = system: SNB-75; experiment: NCI SRB cytotoxicity, CNS SNB-75; assay type: cell-based; settings: Homo sapiens, 48 h exposure
Method: as §1

[32] = system: UACC-62; experiment: NCI SRB cytotoxicity, melanoma UACC-62; assay type: cell-based; settings: Homo sapiens, 48 h exposure
Method: as §1

[33] = system: HOP92; experiment: NCI SRB cytotoxicity, non-small cell lung HOP92; assay type: cell-based; settings: Homo sapiens, HOP-92, 48 h exposure
Method: as §1

Compound | GI50 [1] [nM] | GI50 [2] [nM] | GI50 [3] [nM] | GI50 [4] [nM] | GI50 [5] [nM] | GI50 [6] [nM] | GI50 [7] [nM] | GI50 [8] [nM] | GI50 [9] [nM] | GI50 [10] [nM] | GI50 [11] [nM] | GI50 [12] [nM] | GI50 [13] [nM] | GI50 [14] [nM] | GI50 [15] [nM] | GI50 [16] [nM] | GI50 [17] [nM] | LC50 [17] [nM] | Log10 TGI (concentration in mol/L causing total growth inhibition) [17] [mol/L] | GI50 [18] [nM] | also measured
COc1ccc(C(=O)/C=C/c2cc(-c3cc(OC)c(OC)c(OC)c3)n[nH]2)cc1OC [8e, (E)-1-(3,4-dimethoxyphenyl)-3-(3-(3,4,5-trimethoxyphenyl)-1H-pyrazol-5-yl)prop-2-en-1-one] | 1740 | 1490 | 2570 | 1540 | 620 | 1360 | 2200 | 1420 | 1820 | 180 | 2130 | 1840 | 1410 | 1380 | 1910 | 880 | 1700 | 6170 | −5.49 | 1620 | GI50 [19]: 1990 nM; GI50 [20]: 1230 nM; LC50 [20]: 6460 nM; Log10 TGI (concentration in mol/L causing total growth inhibition (0% growth)) [20]: −5.58 mol/L; GI50 [21]: 270 nM; GI50 [22]: 1680 nM; GI50 [23]: 1320 nM; GI50 [24]: 1850 nM; GI50 [25]: 2690 nM; GI50 [26]: 1340 nM; GI50 [27]: 1780 nM; GI50 [28]: 2790 nM; GI50 [29]: 1270 nM; GI50 [30]: 550 nM; GI50 [31]: 1230 nM; GI50 [32]: 1740 nM
COc1cc(C(=O)/C=C/c2cc(-c3cc(OC)c(OC)c(OC)c3)n[nH]2)cc(OC)c1OC [10e, (E)-1-(3,4,5-trimethoxyphenyl)-3-(3-(3,4,5-trimethoxyphenyl)-1H-pyrazol-5-yl)prop-2-en-1-one] | 1750 | 1570 | 2680 | 1470 | 1680 | 1470 | 2580 | 1660 | 1940 | 520 | 1830 | 1790 | 1890 | 1520 | 2960 | 1310 | 1700 | 6460 | −5.47 | 1790 | GI50 [19]: 1860 nM; GI50 [20]: 1290 nM; LC50 [20]: 13500 nM; Log10 TGI (concentration in mol/L causing total growth inhibition (0% growth)) [20]: −5.42 mol/L; GI50 [21]: 390 nM; GI50 [22]: 1750 nM; GI50 [23]: 1580 nM; GI50 [24]: 1960 nM; GI50 [33]: 860 nM; GI50 [25]: 1450 nM; GI50 [26]: 1490 nM; GI50 [27]: 1820 nM; GI50 [28]: 3200 nM; GI50 [29]: 1290 nM; GI50 [31]: 1540 nM; GI50 [32]: 1780 nM
